{
  "source": "ChEMBL document CHEMBL3045684",
  "about": "“Compatibility of traditional and novel acaricides with bumblebees (Bombus terrestris): a first laboratory assessment of toxicity and sublethal effects” (Pest Manag Sci, 2010)",
  "key": {"Bombus terrestris [1]": {"tested_on": "Bombus terrestris", "experiment": "Contact toxicity against worker Bombus terrestris (bumblebee) assessed as mortality at 30 mg a.i./l applied on the dorsal thorax for 11 weeks measured everyday for 3 days followed by once a week for 11 weeks", "format": "functional"}, "Bombus terrestris [2]": {"tested_on": "Bombus terrestris", "experiment": "Contact toxicity against worker Bombus terrestris (bumblebee) assessed as reduction in reproduction at 30 mg a.i./l applied on the dorsal thorax for 11 weeks measured once a week for 11 weeks relative to control", "format": "functional, organism-based"}, "Bombus terrestris [3]": {"tested_on": "Bombus terrestris", "experiment": "Toxicity against worker Bombus terrestris (bumblebee) assessed as mortality at 30 mg a.i./l, po administered through sugar water for 11 weeks measured everyday for 3 days followed by once a week for 11 weeks", "format": "functional"}, "Bombus terrestris [4]": {"tested_on": "Bombus terrestris", "experiment": "Toxicity against worker Bombus terrestris (bumblebee) assessed as reduction in reproduction at 30 mg a.i./l, po administered through pollen for 11 weeks measured once a week for 11 weeks", "format": "functional", "parameters": "scale not given: the % may be the effect or the level left"}, "Bombus terrestris [5]": {"tested_on": "Bombus terrestris", "experiment": "Toxicity against po dosed worker Bombus terrestris (bumblebee) administered through sugar water for 11 weeks measured everyday for 3 days followed by once a week for 11 weeks", "format": "functional"}, "Bombus terrestris [6]": {"tested_on": "Bombus terrestris", "experiment": "Toxicity against worker Bombus terrestris (bumblebee) assessed as mortality at 30 mg a.i./l, po administered through pollen measured after 7 weeks", "format": "functional", "conditions": "1176 h"}, "Bombus terrestris [7]": {"tested_on": "Bombus terrestris", "experiment": "Toxicity against worker Bombus terrestris (bumblebee) assessed as mortality at 30 mg a.i./l, po administered through pollen for 11 weeks measured everyday for 3 days followed by once a week for 11 weeks", "format": "functional"}, "Bombus terrestris [8]": {"tested_on": "Bombus terrestris", "experiment": "Contact toxicity against worker Bombus terrestris (bumblebee) assessed as mortality at 30 mg a.i./l applied on the dorsal thorax measured up to 1 week", "format": "functional, organism-based"}},
  "note": "Active and inactive are the calls of the source. The rule behind the calls is not given here.",
  "data": [
    {"smiles": "Cc1c(COC(=O)[C@@H]2[C@H](/C=C(\\Cl)C(F)(F)F)C2(C)C)cccc1-c1ccccc1", "note": "(relative stereo) [BIFENTHRIN]", "values": [
      {"measurement": "mortality at 30 µg/mL", "setting": "Bombus terrestris [1]", "value": 100, "unit": "%"},
      {"measurement": "Activity", "setting": "Bombus terrestris [2]", "value": "Active"},
      {"measurement": "mortality at 30 µg/mL", "setting": "Bombus terrestris [3]", "value": 50, "unit": "%"},
      {"measurement": "Activity", "setting": "Bombus terrestris [4]", "value": 50, "unit": "%"},
      {"measurement": "LC50", "setting": "Bombus terrestris [5]", "value": 0.36, "unit": "mgAi/L"},
      {"measurement": "NOAEL", "setting": "Bombus terrestris [5]", "value": 0.03, "unit": "mgAi/L"},
      {"measurement": "mortality at 30 µg/mL", "setting": "Bombus terrestris [6]", "value": 100, "unit": "%"},
      {"measurement": "mortality at 30 µg/mL", "setting": "Bombus terrestris [7]", "value": 90, "unit": "%"},
      {"measurement": "Activity", "setting": "Bombus terrestris [8]", "value": "Active"}
    ]}
  ]
}
